Measured values taken from ChEMBL document CHEMBL3593205, “Total Synthesis of 4,5-Didehydroguadiscine: A Potent Melanogenesis Inhibitor from the Brazilian Medicinal Herb, Hornschuchia obliqua” (J Nat Prod, 2015).
pIC50: −log10 of the molar value.

Columns and labels:
[1] = Cytotoxicity against mouse B16-4A5 cells assessed as cell viability at 3 uM after 72 hrs by MTT assay in presence of theophylline relative to control; type: cell-based; conditions: read-out: Activity
[2] = Potency index, ratio of arbutin IC50 to compound IC50 for inhibition of theophylline-stimulated melanogenesis in mouse B16-4A5 cells; type: functional
[3] = Inhibition of theophylline-stimulated melanogenesis in mouse B16-4A5 cells after 72 hrs by microplate reader analysis; type: functional, cell-based
[4] = Cytotoxicity against mouse B16-4A5 cells assessed as cell viability at 10 uM after 72 hrs by MTT assay in presence of theophylline relative to control; type: cell-based; conditions: read-out: Activity

pIC50 [3]: 5.33
Compound: COc1ccc2c(c1)C(C)(C)c1nccc3cc4c(c-2c13)OCO4
viability at 72 h, 3 µM [1]: 95.7% | Ratio IC50 [2]: 40 | viability at 72 h, 10 µM [4]: 86.7%
